Results published in patent US20110110886A1, “SMALL MOLECULE INHIBITORS OF AUTOTAXIN AND METHODS OF USE” (Yale University, priority 2008, published 2011).
pKi: −log10 of the molar value. Entries after “also recorded” stand apart in the source; their conditions may differ. Read-outs that look alike come from different tables or passages of the source.

Tests used:
[1] = oral, ref. [43]; cited from earlier work
A2058 melanoma cells = test: Matrigel cell invasion assay, melanoma cells; type: cell-based, human; details: A2058, 50 nM ATX
Description: All cell media was supplemented with 10% (v/v) fetal calf serum (FCS) (Gibco) and 1% (v/v) L-glutamine (Gibco) and grown at 37° C. in a humidified atmosphere containing 5% CO2.
Cell invasion assays: Matrigel matrix (1 mg/ml, Becton Dickenson) was added to […] gelatin-coated membranes placed in cell culture inserts (BD Falcon) and allowed to set for 24 hours at room temperature. The inserts were placed into companion 24 well plates (BD Falcon), and chemo-attractants (ATX ±inhibitors) and/or controls were added to the bottom of the wells. Cells (1×10^6) were added to the inserts and incubated for 3 hours at 37° C. Following incubation, the inserts were removed, fixed in 100% methanol, stained with DiffQuick solution, and mounted on glass slides. Non-invading cells were removed by scraping away the matrigel, and migrating cells were quantitated by counting cell number per high-powered field.

[2] = test system: melanoma cell line HTB 63; test: Cell migration assay, melanoma cell line HTB 63; type: cell-based, human
Description: 9B. […] All error bars in this figure indicate the standard error of the mean for nine replicates. The addition of LPA to the experimental groups containing inhibitors (LPA rescue) completely abrogated the small molecule inhibitory effect on cell motility (see discussion). […] Cell culture: Human melanoma cells, A2058 (ATCC), were grown in Dulbecco's Modified Eagle's Medium (DMEM) (Gibco), MeI 28 (ATCC), YUSAC2 (Yale University) and MeI-888 (Yale University) were grown in OptiMEM media (Gibco), and HTB 63 (ATCC) were grown in McKoy's 5a medium (ATCC). Human breast adenocarcinoma cells, MDA-MB-231(ATCC) and ovarian carcinoma cells […] (Gil Mor, Yale University) were grown in RPMI-1640 (Gibco). All cell media was supplemented with 10% (v/v) fetal calf serum (FCS) (Gibco) and 1% (v/v) L-glutamine (Gibco) and grown at 37° C. in a humidified atmosphere containing 5% CO2. Cell motility assays: […] Chemo-attractant (ATX ±inhibitor) and/or controls were placed in the lower half of the chamber, and the cells in the upper chamber. […] Non-migrating cells were removed from the membrane by scraping the top surface. The cells were quantitated by counting the cell number per high powered field in the various wells. Treatments were compared using a chi squared test.

[3] = biological target: T1, ATX (recombinant full-length human ATX), PDE activity (Homo sapiens, UniProt Q13822); test: Steady-state ATX phosphodiesterase (PDE) activity with pNP-TMP, absorbance 405 nm; type: biochemical; details: substrate pNP-TMP; for pKi: 25° C.
T1 construct: consistent with a mature, glycosylated form of the enzyme; TEV cleavage site (C); 9-His (C); 6-His (C); made in house; host or cells: High Five insect cells (baculovirus, p-DEST-8)
Source text: Protein expression and purification: The full length human NPP2 gene (NCBI accession #BC034961) followed by a C-terminal TEV cleavage site and a 9-His and 6-His purification tag was cloned and transferred into a p-DEST-8 baculovirus shuttle vector (Invitrogen), and bacmid DNA was generated by standard methods. The DNA sequence and correct transposition of the genes was verified by PCR, and recombinant full-length human ATX was expressed in High Five insect cells using standard methods. Three days post infection, the supernatant was adjusted to a final concentration of 50 mM Tris pH 8.0, 5 mM CaCl2, and 1 mM NiSO4 and stirred for 10 min. at room temperature. The resulting precipitant was removed by centrifugation (4,420×g for 30 minutes) and filtration ([…]), and the supernatant was concentrated using a Pall concentration system to approximately 250 mL. The cell media was passed over a nickel affinity column (5 mL, Fastflow resin), equilibrated in binding buffer (20 mM Tris pH 8.0, 300 mM NaCl, 20 mM imidazole, and 20% ethylene glycol) at 4° C., washed with 10 column volumes of binding buffer, and then eluted with binding buffer supplemented with 300 mM imidazole. Purified ATX was concentrated to approximately 10 mg mL^−1, and dialyzed into the appropriate assay buffer.
Steady-state enzyme assays: Phosphodiesterase activity of ATX (75-100 nM) was measured by absorbance (λ=405 nm) on a SpectraMax 250 plate reader at 25° C. with the substrate pNP-TMP [36]. Reactions were run in assay buffer containing 10% DMSO (v/v) and 1 mg mL^−1 BSA (hexachlorophene, merbromin, and bithionol) or without BSA (NSC 48300, 2,2′-Methylenebis(4-chlorophenol), eosin Y, and RJC 03297) in a total volume of […]. The uncatalyzed reaction rate was ≦10^−7 s^−1 (data not shown).
The steady-state rates (v) of product formation were obtained by fitting the time courses of absorbance or fluorescence change to linear functions. Absorbance units were converted to p-nitrophenylate concentration using ε405 of 18.5 mM^−1 cm^−1 [39] and a measured path length of 0.494 cm. FS-3 hydrolysis product formation was quantitated in arbitrary fluorescence units.
The Michaelis constants (KM) and the catalytic turnover rate constants (kcat) were obtained by fitting the [substrate]-dependence of v to a rectangular hyperbola in the form of the Briggs-Haldane equation: […]
in which [S] is [pNP-TMP] or [FS-3]. Inhibitors were treated as reversible inhibitors and analyzed according to the general steady-state linear enzyme inhibitor scheme:
in which E is ATX, S is pNP-TMP or FS-3 substrate, P are the hydrolysis products, and K1 is the dissociation equilibrium constant for inhibitor binding. The values of α and K1 were obtained by fitting the steady-state rates of product formation (v) to the general inhibition equation: […]
in which [I] is the inhibitor concentration, kcat is the maximum catalytic turnover rate, and KS is the Michaelis constant of the substrate obtained in the absence of inhibitor.
The type of inhibition (competitive, noncompetitive, or uncompetitive) depends on the value of α.
The type of inhibition was assigned if the difference between the r^2 values of the fits to the general inhibition equation (Eq 2) and the specific inhibition (i.e. competitive, noncompetitive or uncompetitive) equations was less than 0.01.

α value from general steady-state inhibition equation (Eq. 2) [3]	pKi ([3]; read-out: KI (dissociation equilibrium constant for inhibitor binding), ATX PDE activity)	Structure (SMILES)	dose that can be safely dosed in humans [1]	inhibition of ATX-induced stimulation of melanoma cell invasion (A2058 melanoma cells)	inhibition of ATX-stimulated HTB63 cell migration ([2]; 50 nM ATX, 3 hours)	LPA rescue of inhibited HTB63 cell migration ([2]; excess LPA (75 nM))	type of inhibition of ATX PDE activity [3]	inhibition of ATX-induced stimulation of melanoma cell invasion (A2058 melanoma cells; listed as NSC48300)	pKi ([3]; competitive inhibition equation (Eq. 3), read-out: KI, ATX PDE activity)
3.0 (±2.3)	4.22	Oc1c(Cl)cc(Cl)cc1Sc1cc(Cl)cc(Cl)c1O [Bithionol]	25 mg kg^−1 body weight per day	inhibited in a dose-dependent manner; also recorded: could be reduced	can be inhibited	rescued by excess LPA	mixed, noncompetitive inhibition mechanism	–	–
–	–	O=[As](O)(O)c1ccc(Cc2ccc([As](=O)(O)O)cc2)cc1 [NSC 48300]	–	inhibited in a dose-dependent manner	–	–	competitive inhibition	could be reduced	7.32
